Assay results from ChEMBL document CHEMBL1151757, “Synthesis, radiosynthesis, and biological evaluation of fluorine-18-labeled 2beta-carbo(fluoroalkoxy)-3beta-(3'-((Z)-2-haloethenyl)phenyl)nortropanes: candidate radioligands for in vivo imaging of the serotonin transporter with positron emission tomography” (J Med Chem, 2008).

How the values were obtained:
[1] = Ratio of drug uptake in pons to cerebellum in anesthetized cynomolgus monkey after 18.5 mins postinjection; assay type: ADME, organism-based, Macaca fascicularis; details: in vivo
[2] = Ratio of drug uptake in pons to cerebellum in anesthetized cynomolgus monkey after 35 mins postinjection; assay type: ADME, organism-based, Macaca fascicularis; details: in vivo
[3] = Ratio of drug uptake in pons to cerebellum in anesthetized cynomolgus monkey after 185 mins postinjection; assay type: ADME, organism-based, Macaca fascicularis; details: in vivo
[4] = Ratio of drug uptake in medulla to cerebellum in anesthetized cynomolgus monkey after 0.5 mins postinjection; assay type: ADME, organism-based, Macaca fascicularis; details: in vivo
[5] = Ratio of drug uptake in medulla to cerebellum in anesthetized cynomolgus monkey after 9.5 mins postinjection; assay type: ADME, organism-based, Macaca fascicularis; details: in vivo
[6] = Ratio of drug uptake in medulla to cerebellum in anesthetized cynomolgus monkey after 185 mins postinjection; assay type: ADME, organism-based, Macaca fascicularis; details: in vivo
[7] = Drug uptake in anesthetized cynomolgus monkey brain frontal lobe after 18.5 mins postinjection; assay type: ADME, organism-based, Macaca fascicularis; details: in vivo
[8] = Drug uptake in anesthetized cynomolgus monkey brain frontal lobe after 105 mins postinjection; assay type: ADME, organism-based, Macaca fascicularis; details: in vivo, 1.75 h
[9] = Drug uptake in anesthetized cynomolgus monkey brain frontal lobe after 215 mins postinjection; assay type: ADME, organism-based, Macaca fascicularis; details: in vivo
[10] = Ratio of drug uptake in occipital lobe to cerebellum in anesthetized cynomolgus monkey after 135 mins postinjection; assay type: ADME, organism-based, Macaca fascicularis; details: in vivo, 2.25 h
Putamen [11] = assay: Drug uptake in anesthetized cynomolgus monkey brain putamen after 125 mins postinjection; assay type: ADME, organism-based, Macaca fascicularis; details: in vivo
Putamen [12] = assay: Drug uptake in anesthetized cynomolgus monkey brain putamen after 215 mins postinjection; assay type: ADME, organism-based, Macaca fascicularis; details: in vivo
Putamen [13] = assay: Drug uptake in anesthetized cynomolgus monkey brain putamen after 225 mins postinjection; assay type: ADME, organism-based, Macaca fascicularis; details: in vivo, 3.75 h
Putamen [14] = assay: Drug uptake in anesthetized cynomolgus monkey brain putamen after 235 mins postinjection; assay type: ADME, organism-based, Macaca fascicularis; details: in vivo
Thalamus [15] = assay: Drug uptake in anesthetized cynomolgus monkey brain thalamus after 0.5 mins postinjection; assay type: ADME, organism-based, Macaca fascicularis; details: in vivo
[16] = Ratio of drug uptake in frontal lobe to cerebellum in anesthetized cynomolgus monkey after 75 mins postinjection; assay type: ADME, organism-based, Macaca fascicularis; details: in vivo, 1.25 h
Pons [17] = assay: Drug uptake in anesthetized cynomolgus monkey brain pons after 2.5 mins postinjection; assay type: ADME, organism-based, Macaca fascicularis; details: in vivo
Pons [18] = assay: Drug uptake in anesthetized cynomolgus monkey brain pons after 3.5 mins postinjection; assay type: ADME, organism-based, Macaca fascicularis; details: in vivo
Pons [19] = assay: Drug uptake in anesthetized cynomolgus monkey brain pons after 65 mins postinjection; assay type: ADME, organism-based, Macaca fascicularis; details: in vivo
Pons [20] = assay: Drug uptake in anesthetized cynomolgus monkey brain pons after 185 mins postinjection; assay type: ADME, organism-based, Macaca fascicularis; details: in vivo
Pons [21] = assay: Drug uptake in anesthetized cynomolgus monkey brain pons after 205 mins postinjection; assay type: ADME, organism-based, Macaca fascicularis; details: in vivo
Medulla [22] = assay: Drug uptake in anesthetized cynomolgus monkey brain medulla after 185 mins postinjection; assay type: ADME, organism-based, Macaca fascicularis; details: in vivo
[23] = Drug uptake in anesthetized cynomolgus monkey brain occipital lobe after 195 mins postinjection; assay type: ADME, organism-based, Macaca fascicularis; details: in vivo, 3.25 h
[24] = Drug uptake in anesthetized cynomolgus monkey brain cerebellum after 205 mins postinjection; assay type: ADME, organism-based, Macaca fascicularis; details: in vivo
[25] = Ratio of drug uptake in frontal lobe to cerebellum in anesthetized cynomolgus monkey after 235 mins postinjection; assay type: ADME, organism-based, Macaca fascicularis; details: in vivo
[26] = Ratio of drug uptake in frontal lobe to cerebellum in anesthetized cynomolgus monkey after 205 mins postinjection; assay type: ADME, organism-based, Macaca fascicularis; details: in vivo
Caudate [27] = assay: Drug uptake in anesthetized cynomolgus monkey brain caudate after 205 mins postinjection; assay type: ADME, organism-based, Macaca fascicularis, Caudate nucleus; details: in vivo
Putamen [28] = assay: Drug uptake in anesthetized cynomolgus monkey brain putamen after 185 mins postinjection; assay type: ADME, organism-based, Macaca fascicularis; details: in vivo
Pons [29] = assay: Drug uptake in anesthetized cynomolgus monkey brain pons after 125 mins postinjection; assay type: ADME, organism-based, Macaca fascicularis; details: in vivo
Medulla [30] = assay: Drug uptake in anesthetized cynomolgus monkey brain medulla after 3.5 mins postinjection; assay type: ADME, organism-based, Macaca fascicularis; details: in vivo
Medulla [31] = assay: Drug uptake in anesthetized cynomolgus monkey brain medulla after 9.5 mins postinjection; assay type: ADME, organism-based, Macaca fascicularis; details: in vivo
Medulla [32] = assay: Drug uptake in anesthetized cynomolgus monkey brain medulla after 27.5 mins postinjection; assay type: ADME, organism-based, Macaca fascicularis; details: in vivo
[33] = Ratio of drug uptake in putamen to cerebellum in anesthetized cynomolgus monkey after 3.5 mins postinjection; assay type: ADME, organism-based, Macaca fascicularis; details: in vivo
[34] = Ratio of drug uptake in putamen to cerebellum in anesthetized cynomolgus monkey after 35 mins postinjection; assay type: ADME, organism-based, Macaca fascicularis; details: in vivo
Medulla [35] = assay: Drug uptake in anesthetized cynomolgus monkey brain medulla after 155 mins postinjection; assay type: ADME, organism-based, Macaca fascicularis; details: in vivo
Medulla [36] = assay: Drug uptake in anesthetized cynomolgus monkey brain medulla after 165 mins postinjection; assay type: ADME, organism-based, Macaca fascicularis; details: in vivo, 2.75 h
[37] = Drug uptake in anesthetized cynomolgus monkey brain cerebellum after 12.5 mins postinjection; assay type: ADME, organism-based, Macaca fascicularis; details: in vivo
[38] = Drug uptake in anesthetized cynomolgus monkey brain cerebellum after 18.5 mins postinjection; assay type: ADME, organism-based, Macaca fascicularis; details: in vivo
[39] = Drug uptake in anesthetized cynomolgus monkey brain cerebellum after 75 mins postinjection; assay type: ADME, organism-based, Macaca fascicularis; details: in vivo, 1.25 h
[40] = Drug uptake in anesthetized cynomolgus monkey brain cerebellum after 235 mins postinjection; assay type: ADME, organism-based, Macaca fascicularis; details: in vivo
[41] = Drug uptake in anesthetized cynomolgus monkey brain occipital lobe after 0.5 mins postinjection; assay type: ADME, organism-based, Macaca fascicularis; details: in vivo
[42] = Ratio of drug uptake in putamen to cerebellum in anesthetized cynomolgus monkey after 215 mins postinjection; assay type: ADME, organism-based, Macaca fascicularis; details: in vivo
[43] = Ratio of drug uptake in thalamus to cerebellum in anesthetized cynomolgus monkey after 155 mins postinjection; assay type: ADME, organism-based, Macaca fascicularis; details: in vivo
Caudate [44] = assay: Drug uptake in anesthetized cynomolgus monkey brain caudate after 3.5 mins postinjection; assay type: ADME, organism-based, Macaca fascicularis, Caudate nucleus; details: in vivo
Caudate [45] = assay: Drug uptake in anesthetized cynomolgus monkey brain caudate after 35 mins postinjection; assay type: ADME, organism-based, Macaca fascicularis, Caudate nucleus; details: in vivo
Caudate [46] = assay: Drug uptake in anesthetized cynomolgus monkey brain caudate after 75 mins postinjection; assay type: ADME, organism-based, Macaca fascicularis, Caudate nucleus; details: in vivo, 1.25 h
Caudate [47] = assay: Drug uptake in anesthetized cynomolgus monkey brain caudate after 85 mins postinjection; assay type: ADME, organism-based, Macaca fascicularis, Caudate nucleus; details: in vivo
Caudate [48] = assay: Drug uptake in anesthetized cynomolgus monkey brain caudate after 125 mins postinjection; assay type: ADME, organism-based, Macaca fascicularis, Caudate nucleus; details: in vivo
Putamen [49] = assay: Drug uptake in anesthetized cynomolgus monkey brain putamen after 1.5 mins postinjection; assay type: ADME, organism-based, Macaca fascicularis; details: in vivo, 0.025 h
Thalamus [50] = assay: Drug uptake in anesthetized cynomolgus monkey brain thalamus after 4.5 mins postinjection; assay type: ADME, organism-based, Macaca fascicularis; parameters: unit not given here; details: in vivo, 0.075 h
Thalamus [51] = assay: Drug uptake in anesthetized cynomolgus monkey brain thalamus after 9.5 mins postinjection; assay type: ADME, organism-based, Macaca fascicularis; parameters: unit not given here; details: in vivo
Thalamus [52] = assay: Drug uptake in anesthetized cynomolgus monkey brain thalamus after 18.5 mins postinjection; assay type: ADME, organism-based, Macaca fascicularis; parameters: unit not given here; details: in vivo
Thalamus [53] = assay: Drug uptake in anesthetized cynomolgus monkey brain thalamus after 35 mins postinjection; assay type: ADME, organism-based, Macaca fascicularis; parameters: unit not given here; details: in vivo
Putamen [54] = assay: Drug uptake in anesthetized cynomolgus monkey brain putamen after 9.5 mins postinjection; assay type: ADME, organism-based, Macaca fascicularis; parameters: unit not given here; details: in vivo
Putamen [55] = assay: Drug uptake in anesthetized cynomolgus monkey brain putamen after 35 mins postinjection; assay type: ADME, organism-based, Macaca fascicularis; parameters: unit not given here; details: in vivo
Putamen [56] = assay: Drug uptake in anesthetized cynomolgus monkey brain putamen after 85 mins postinjection; assay type: ADME, organism-based, Macaca fascicularis; parameters: unit not given here; details: in vivo
Putamen [57] = assay: Drug uptake in anesthetized cynomolgus monkey brain putamen after 95 mins postinjection; assay type: ADME, organism-based, Macaca fascicularis; parameters: unit not given here; details: in vivo
Thalamus [58] = assay: Drug uptake in anesthetized cynomolgus monkey brain thalamus after 75 mins postinjection; assay type: ADME, organism-based, Macaca fascicularis; parameters: unit not given here; details: in vivo, 1.25 h
Thalamus [59] = assay: Drug uptake in anesthetized cynomolgus monkey brain thalamus after 135 mins postinjection; assay type: ADME, organism-based, Macaca fascicularis; parameters: unit not given here; details: in vivo, 2.25 h
Thalamus [60] = assay: Drug uptake in anesthetized cynomolgus monkey brain thalamus after 215 mins postinjection; assay type: ADME, organism-based, Macaca fascicularis; parameters: unit not given here; details: in vivo
Thalamus [61] = assay: Drug uptake in anesthetized cynomolgus monkey brain thalamus after 235 mins postinjection; assay type: ADME, organism-based, Macaca fascicularis; parameters: unit not given here; details: in vivo
Midbrain [62] = assay: Drug uptake in anesthetized cynomolgus monkey brain midbrain after 27.5 mins postinjection; assay type: ADME, organism-based, Macaca fascicularis; parameters: unit not given here; details: in vivo
Midbrain [63] = assay: Drug uptake in anesthetized cynomolgus monkey brain midbrain after 35 mins postinjection; assay type: ADME, organism-based, Macaca fascicularis; parameters: unit not given here; details: in vivo
Midbrain [64] = assay: Drug uptake in anesthetized cynomolgus monkey brain midbrain after 45 mins postinjection; assay type: ADME, organism-based, Macaca fascicularis; parameters: unit not given here; details: in vivo, 0.75 h
Midbrain [65] = assay: Drug uptake in anesthetized cynomolgus monkey brain midbrain after 75 mins postinjection; assay type: ADME, organism-based, Macaca fascicularis; parameters: unit not given here; details: in vivo, 1.25 h
Midbrain [66] = assay: Drug uptake in anesthetized cynomolgus monkey brain midbrain after 105 mins postinjection; assay type: ADME, organism-based, Macaca fascicularis; parameters: unit not given here; details: in vivo, 1.75 h
Midbrain [67] = assay: Drug uptake in anesthetized cynomolgus monkey brain midbrain after 115 mins postinjection; assay type: ADME, organism-based, Macaca fascicularis; parameters: unit not given here; details: in vivo
[68] = Ratio of drug uptake in midbrain to cerebellum in anesthetized cynomolgus monkey after 27.5 mins postinjection; assay type: ADME, organism-based, Macaca fascicularis; details: in vivo

**Q.** Which results are given for O=C(OCC[18F])C1C2CCC(CC1c1cccc(/C=C\Br)c1)N2 (stereo not drawn)?
**A.** Ratio [1]: 1.1; Ratio [2]: 1.1; Ratio [3]: 1.9; Ratio [4]: 0.6; Ratio [5]: 1.2; Ratio [6]: 1.9; Drug uptake [7]: 2.39; Drug uptake [8]: 2.69; Drug uptake [9]: 1.97; Ratio [10]: 1.1; Drug uptake (Putamen [11]): 4.59; Drug uptake (Putamen [12]): 3.24; Drug uptake (Putamen [13]): 3; Drug uptake (Putamen [14]): 2.98; Drug uptake (Thalamus [15]): 0; Ratio [16]: 0.9; Drug uptake (Pons [17]): 0.42; Drug uptake (Pons [18]): 0.82; Drug uptake (Pons [19]): 4.56; Drug uptake (Pons [20]): 3.6; Drug uptake (Pons [21]): 3.51; Drug uptake (Medulla [22]): 3.61; Drug uptake [23]: 2.02; Drug uptake [24]: 1.8; Ratio [25]: 1.2; Ratio [26]: 1.1; Drug uptake (Caudate [27]): 2.92; Drug uptake (Putamen [28]): 3.68; Drug uptake (Pons [29]): 4.27; Drug uptake (Medulla [30]): 1.26; Drug uptake (Medulla [31]): 3.76; Drug uptake (Medulla [32]): 4.57; Ratio [33]: 0.9; Ratio [34]: 1.3; Drug uptake (Medulla [35]): 3.83; Drug uptake (Medulla [36]): 3.94; Drug uptake [37]: 3.41; Drug uptake [38]: 3.59; Drug uptake [39]: 3.3; Drug uptake [40]: 1.62; Drug uptake [41]: 0.01; Ratio [42]: 1.8; Ratio [43]: 1.7; Drug uptake (Caudate [44]): 0.63; Drug uptake (Caudate [45]): 3.56; Drug uptake (Caudate [46]): 3.94; Drug uptake (Caudate [47]): 4.06; Drug uptake (Caudate [48]): 3.75; Drug uptake (Putamen [49]): 0.06; Drug uptake (Thalamus [50]): 1.44; Drug uptake (Thalamus [51]): 2.83; Drug uptake (Thalamus [52]): 3.32; Drug uptake (Thalamus [53]): 3.89; Drug uptake (Putamen [54]): 3.59; Drug uptake (Putamen [55]): 4.8; Drug uptake (Putamen [56]): 4.94; Drug uptake (Putamen [57]): 4.83; Drug uptake (Thalamus [58]): 4.29; Drug uptake (Thalamus [59]): 4.03; Drug uptake (Thalamus [60]): 2.92; Drug uptake (Thalamus [61]): 2.88; Drug uptake (Midbrain [62]): 4.53; Drug uptake (Midbrain [63]): 4.68; Drug uptake (Midbrain [64]): 4.82; Drug uptake (Midbrain [65]): 4.96; Drug uptake (Midbrain [66]): 4.87; Drug uptake (Midbrain [67]): 4.78; Ratio [68]: 1.2
